Results taken from US20170226560A1, “GOLD NANOPARTICLE-BASED HOMOGENEOUS COLORIMETRIC DIAGNOSTIC ASSAY FOR THE DETECTION OF PROTEASES AND PROTEASE INHIBITORS” (IMRA America, Inc., priority 2014, published 2017).
Ends that are not written are not given here.

Test system: trypsin
Assay: Colloidal gold nanoparticle-based colorimetric assay for trypsin (hydrolytic cleavage of peptide substrate)
Type: biochemical
Details: 1000 nM peptide substrate, trypsin 200 pM, 20° C.
Procedure: Based on the design criteria for the peptide substrate mentioned above, a sequence of amino acids in the peptide substrate of SEQ ID NO: 1 Lys-Lys-Gly-Phe-Pro-Arg-Gly-Gly-Asp-Cys was used in an assay method patterned after FIG. 1a. Unless noted otherwise, all incubations and reactions reported in the present specification were conducted at 20° C. The final reaction volume in all experiments described in the present specification, unless noted otherwise, was 500 microliters and the gold nanoparticle concentration was 1 nM. […] Thus, in all of the described experiments the aggregation state of any gold nanoparticle solution could be measured after 30 minutes or less. […] All of these can be evaluated using the present inventive assay methods. […]
After confirming that the peptide substrate SEQ ID NO: 1 Lys-Lys-Gly-Phe-Pro-Arg-Gly-Gly-Asp-Cys did induce the aggregation of negative surface charged gold nanoparticles, we carried out another experiment of examining the ultraviolet-visible spectra of solutions of colloidal gold nanoparticles after they were added to solutions of peptide substrates that had been pre-exposed for different time periods of from 0 minutes (min) to 60 min to trypsin. […] The absorbance spectrum shifts back to a maximum at 520 nm±5 nm, non-aggregated nanoparticles, as the pre-exposure time increases. […]

## KKGFPRGGDC [SEQ ID NO: 1, peptide substrate cleaved by trypsin; intact peptide aggregates negatively charged gold nanoparticles]
  time for complete hydrolytic cleavage of the peptide substrate by trypsin: more than 60 min
